This test has as its system P388 leukemia ip, CD2F1 mice, survival T/C. The test is described as follows: NCI In Vivo Anticancer Drug Screen. Data for tumor model P388 Leukemia (intraperitoneal) in CD2F1 (CDF1) mice. The conditions noted are these: endpoint: median survival time, higher = longer survival. The essentials:
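Mice carrying the transplanted tumor received test compound or vehicle. Survival was recorded in each group, and the value is the treated-group measurement divided by that of the vehicle-treated control group.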

Setting [1] is: dose: 60.0 mg/kg/injection, schedule: Q01DX005 (ip), vehicle: Klucel (hydroxypropylcellulose) (HPC).
[2] abbreviates: dose: 120.0 mg/kg/injection, schedule: Q01DX005 (ip), vehicle: Klucel (hydroxypropylcellulose) (HPC).
Where [3] appears, read: dose: 240.0 mg/kg/injection, schedule: Q01DX005 (ip), vehicle: Klucel (hydroxypropylcellulose) (HPC).
Where [4] appears, read: dose: 12.5 mg/kg/injection, schedule: Q01DX005 (ip), vehicle: saline with Tween-80.
The mark [5] stands for this setting: dose: 25.0 mg/kg/injection, schedule: Q01DX005 (ip), vehicle: saline with Tween-80.
Where [6] appears, read: dose: 50.0 mg/kg/injection, schedule: Q01DX005 (ip), vehicle: saline with Tween-80.

Where “and” joins values, the source holds several entries; their conditions need not be identical. Identical values can stand only once. Toxic doses and inconclusive results are not listed.

For `CCn1c2ccccc2c2ccc(N=Cc3ccc4ccccc4c3)cc21`, the T/C is, setting by setting: (dose: 100.0 mg/kg/injection, schedule: Q04DX003 (ip), vehicle: saline + alcohol) 92 % of control; (dose: 200.0 mg/kg/injection, schedule: Q04DX003 (ip), vehicle: saline + alcohol) 97 % of control; (dose: 400.0 mg/kg/injection, schedule: Q04DX003 (ip), vehicle: saline + alcohol) 97 % of control.
For the compound `c1cnc2c(c1)n[n+]1[n-]c3ccccc3n21`, the T/C under setting [1] was 96 % of control and the T/C under setting [2] is 91 % of control.
Take `CC(C)(C)N1C(=O)C(Cl)(C#N)C1c1ccccc1` (stereo not drawn): the T/C is 95 % of control under setting [1], 92 % of control under setting [2] and 92 % of control under setting [3].
Turning to `Cc1ccc(S(=O)(=O)N/N=C\c2cccnc2)cc1`, the T/C is, setting by setting: (dose: 12.5 mg/kg/injection, schedule: Q01DX009 (ip), vehicle: other) 105 % of control; (dose: 25.0 mg/kg/injection, schedule: Q01DX009 (ip), vehicle: other) 110 % of control; (dose: 50.0 mg/kg/injection, schedule: Q01DX009 (ip), vehicle: other) 105 % of control; (dose: 100.0 mg/kg/injection, schedule: Q01DX009 (ip), vehicle: other) 109 % of control and 95 % of control; (dose: 200.0 mg/kg/injection, schedule: Q01DX009 (ip), vehicle: other) 99 % of control and 100 % of control; (dose: 400.0 mg/kg/injection, schedule: Q01DX009 (ip), vehicle: other) 101 % of control.
Consider `CC(=O)Nc1nc2ncc(CN(C(C)=O)c3ccc(C4=NC(CCC(=O)O)C(=O)O4)cc3)nc2c(=O)[nH]1` (stereo not drawn), for which the T/C runs as follows: (dose: 50.0 mg/kg/injection, schedule: Q04DX003 (ip), vehicle: alkali diluted with saline) 97 % of control; (dose: 100.0 mg/kg/injection, schedule: Q04DX003 (ip), vehicle: alkali diluted with saline) 95 % of control; (dose: 200.0 mg/kg/injection, schedule: Q04DX003 (ip), vehicle: alkali diluted with saline) 102 % of control.
With `C=CC(C)(CCC1C(C)=CCC2C(C)(C)CCCC12C)OC1OC(C)C(O)C(O)C1O` (stereo not drawn), the T/C (dose: 19.0 mg/kg/injection, schedule: Q01DX005 (ip), vehicle: Klucel (hydroxypropylcellulose) (HPC)) was 102 % of control; the T/C (dose: 20.0 mg/kg/injection, schedule: Q01DX005 (ip), vehicle: Klucel (hydroxypropylcellulose) (HPC)) is 97 % of control; the T/C (dose: 21.0 mg/kg/injection, schedule: Q01DX005 (ip), vehicle: Klucel (hydroxypropylcellulose) (HPC)) was 100 % of control; the T/C (dose: 38.0 mg/kg/injection, schedule: Q01DX005 (ip), vehicle: Klucel (hydroxypropylcellulose) (HPC)) was 101 % of control; the T/C (dose: 40.0 mg/kg/injection, schedule: Q01DX005 (ip), vehicle: Klucel (hydroxypropylcellulose) (HPC)) was 103 % of control; the T/C (dose: 42.0 mg/kg/injection, schedule: Q01DX005 (ip), vehicle: Klucel (hydroxypropylcellulose) (HPC)) is 98 % of control. For the same compound, the T/C (dose: 76.0 mg/kg/injection, schedule: Q01DX005 (ip), vehicle: Klucel (hydroxypropylcellulose) (HPC)) is 98 % of control; the T/C (dose: 80.0 mg/kg/injection, schedule: Q01DX005 (ip), vehicle: Klucel (hydroxypropylcellulose) (HPC)) was 98 % of control; the T/C (dose: 84.0 mg/kg/injection, schedule: Q01DX005 (ip), vehicle: Klucel (hydroxypropylcellulose) (HPC)) was 102 % of control; the T/C (dose: 152.0 mg/kg/injection, schedule: Q01DX005 (ip), vehicle: Klucel (hydroxypropylcellulose) (HPC)) is 108 % of control; the T/C (dose: 160.0 mg/kg/injection, schedule: Q01DX005 (ip), vehicle: Klucel (hydroxypropylcellulose) (HPC)) is 93 % of control; the T/C (dose: 168.0 mg/kg/injection, schedule: Q01DX005 (ip), vehicle: Klucel (hydroxypropylcellulose) (HPC)) was 98 % of control.
As for `O=C1Nc2ccccc2C1NC(=S)Nc1ccccc1` (stereo not drawn), the T/C reads like this: (dose: 60.0 mg/kg/injection, schedule: Q01DX005 (ip), vehicle: saline with Tween-80) 96 % of control; (dose: 120.0 mg/kg/injection, schedule: Q01DX005 (ip), vehicle: saline with Tween-80) 94 % of control.
Consider `CCOC(=O)/C=C/C(=O)NN`, for which the T/C is 89 % of control (dose: 12.5 mg/kg/injection, schedule: Q01DX009 (ip), vehicle: water); 100 % of control (dose: 25.0 mg/kg/injection, schedule: Q01DX009 (ip), vehicle: water); 99 % of control and 102 % of control and 93 % of control (dose: 50.0 mg/kg/injection, schedule: Q01DX009 (ip), vehicle: water); 107 % of control and 109 % of control and 97 % of control (dose: 100.0 mg/kg/injection, schedule: Q01DX009 (ip), vehicle: water); 104 % of control and 109 % of control (dose: 200.0 mg/kg/injection, schedule: Q01DX009 (ip), vehicle: water).
Turning to `CCOC(=O)C(C)(C)S(=O)Nc1ccccc1` (stereo not drawn), the T/C is 99 % of control under setting [1], 99 % of control under setting [2] and 102 % of control under setting [3].
Regarding `O=C(c1ccc([N+](=O)[O-])cc1)c1cnc2nc(-c3ccccc3)c(-c3ccccc3)nn12`, the T/C runs as follows: under setting [4], 99 % of control; under setting [5], 97 % of control; under setting [6], 88 % of control and 93 % of control; (dose: 100.0 mg/kg/injection, schedule: Q01DX005 (ip), vehicle: saline with Tween-80) 89 % of control; (dose: 200.0 mg/kg/injection, schedule: Q01DX005 (ip), vehicle: saline with Tween-80) 96 % of control.
Take `CC1=CC(=Nc2cc(Cl)c(O)c(Cl)c2)C=CC1=O`: the T/C was 96 % of control (dose: 6.25 mg/kg/injection, schedule: Q01DX005 (ip), vehicle: saline); 96 % of control (dose: 12.5 mg/kg/injection, schedule: Q01DX005 (ip), vehicle: saline); 89 % of control (dose: 25.0 mg/kg/injection, schedule: Q01DX005 (ip), vehicle: saline).
In the case of `CCCCCCCCCCCCN1C(C)=CS/C1=C\C=C\c1scc(C)[n+]1CCCCCCCCCCCC`, the T/C was 110 % of control (dose: 0.75 mg/kg/injection, schedule: Q01DX005 (ip), vehicle: saline with Tween-80); 119 % of control (dose: 3.0 mg/kg/injection, schedule: Q01DX005 (ip), vehicle: saline with Tween-80); 150 % of control (dose: 3.12 mg/kg/injection, schedule: Q04DX002 (ip), vehicle: saline with Tween-80); 150 % of control and 157 % of control (dose: 6.25 mg/kg/injection, schedule: Q04DX002 (ip), vehicle: saline with Tween-80); 160 % of control and 163 % of control (dose: 12.5 mg/kg/injection, schedule: Q04DX002 (ip), vehicle: saline with Tween-80).
In the case of `O=C(NCCCCCCNC(=O)C1CCCN1)C1CCCN1` (stereo not drawn), the T/C (dose: 15.0 mg/kg/injection, schedule: Q01DX005 (ip), vehicle: saline) was 103 % of control; the T/C (dose: 30.0 mg/kg/injection, schedule: Q01DX005 (ip), vehicle: saline) is 96 % of control; the T/C (dose: 60.0 mg/kg/injection, schedule: Q01DX005 (ip), vehicle: saline) is 100 % of control and 97 % of control.
As for `O=P(O)(O)SP(=O)(O)O.[Zn+2]`, the T/C reads like this: (dose: 100.0 mg/kg/injection, schedule: Q04DX003 (ip), vehicle: Klucel (hydroxypropylcellulose) (HPC)) 101 % of control; (dose: 200.0 mg/kg/injection, schedule: Q04DX003 (ip), vehicle: Klucel (hydroxypropylcellulose) (HPC)) 105 % of control.
For `CC(=O)Nc1nc(C)c(CCCOc2ccc([N+](=O)[O-])cc2)c(=O)[nH]1`, the T/C is 86 % of control under setting [1] and 86 % of control under setting [2].
Regarding `Cc1cccc(NCc2ccncc2)n1`, the T/C was 92 % of control (dose: 6.25 mg/kg/injection, schedule: Q01DX005 (ip), vehicle: saline with Tween-80); 102 % of control under setting [4]; 100 % of control under setting [5]; 100 % of control under setting [6].
`Cc1cc(C)c2c(=O)n(-c3ccc(Br)cc3)c(=S)n(-c3ccc(Br)cc3)c2n1`: the T/C is 99 % of control under setting [4]; 97 % of control under setting [5]; 87 % of control and 95 % of control under setting [6].
Regarding `CC1CCCC(NC(=O)N(CCCl)N=O)C1` (stereo not drawn), the T/C (dose: 4.0 mg/kg/injection, schedule: Q04DX003 (ip), vehicle: saline with Tween-80) is 118 % of control; the T/C (dose: 6.25 mg/kg/injection, schedule: Q01DX009 (ip), vehicle: saline with Tween-80) is 175 % of control; the T/C (dose: 12.5 mg/kg/injection, schedule: Q01DX009 (ip), vehicle: saline with Tween-80) was 225 % of control; the T/C (dose: 16.0 mg/kg/injection, schedule: Q04DX003 (ip), vehicle: saline with Tween-80) was 177 % of control; the T/C (dose: 25.0 mg/kg/injection, schedule: Q01DX009 (ip), vehicle: saline with Tween-80) was 272 % of control and 295 % of control; the T/C (dose: 25.0 mg/kg/injection, schedule: Q04DX003 (ip), vehicle: saline with Tween-80) is 245 % of control. For the setting “dose: 50.0 mg/kg/injection, schedule: Q04DX003 (ip), vehicle: saline with Tween-80”, the T/C was 118 % of control.

(Values after PubChem BioAssay AID330 (DTP/NCI, 2004).)
